Molecules are shown by their SMILES.

Holding throughout (assay type): binding
The target of experiment [1] is T1, BoSGBPMLG-A (Bacteroides ovatus, UniProt A0AAN3A7L1).
T1 construct: gene BACOVA_02743; residues 24-558, signal peptide and lipidation Cys excluded, N-terminal His6 tag (pHTP1-A57), expressed in E. coli BL21(DE3); NT-647 dye labelled for MST
T1 sequence (A0AAN3A7L1 24-558): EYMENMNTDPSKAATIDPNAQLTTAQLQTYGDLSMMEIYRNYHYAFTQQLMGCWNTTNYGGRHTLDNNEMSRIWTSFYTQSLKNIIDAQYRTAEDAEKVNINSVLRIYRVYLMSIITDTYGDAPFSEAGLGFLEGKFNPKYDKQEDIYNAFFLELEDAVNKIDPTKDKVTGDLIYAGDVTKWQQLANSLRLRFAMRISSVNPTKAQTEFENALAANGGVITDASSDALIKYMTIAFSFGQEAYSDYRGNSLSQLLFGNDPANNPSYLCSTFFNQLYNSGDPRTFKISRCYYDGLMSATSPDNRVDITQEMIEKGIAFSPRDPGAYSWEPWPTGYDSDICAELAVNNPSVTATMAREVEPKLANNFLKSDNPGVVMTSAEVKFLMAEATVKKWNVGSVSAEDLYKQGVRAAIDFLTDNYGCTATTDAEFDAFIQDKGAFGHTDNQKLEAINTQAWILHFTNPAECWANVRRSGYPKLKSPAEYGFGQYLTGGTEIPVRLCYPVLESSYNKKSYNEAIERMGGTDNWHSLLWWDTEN
Description: microscale thermophoresis. Particulars: 50 mM HEPES pH 7.5, 100 mM NaCl, 5 mM CaCl2, 5 mM TCEP, 0.05% Tween 20, 25°C; protein NT-647 labelled; weak, affinity not determinable (ligand solubility). For orientation: MST reads how a fluorescent partner responds to local heating, with and without ligand.

The target in a further experiment is T2, BoSGBPMLG-A-ZB (Bacteroides ovatus, UniProt A0AAN3A7L1).
T2 construct: gene BACOVA_02743; residues 39-558, N-terminal His6 and Zbasic (ZB) tag (pNIC-ZB), expressed in E. coli BL21(DE3); model covers residues 40-559 as printed; 68 kDa
T2 sequence (A0AAN3A7L1 39-558): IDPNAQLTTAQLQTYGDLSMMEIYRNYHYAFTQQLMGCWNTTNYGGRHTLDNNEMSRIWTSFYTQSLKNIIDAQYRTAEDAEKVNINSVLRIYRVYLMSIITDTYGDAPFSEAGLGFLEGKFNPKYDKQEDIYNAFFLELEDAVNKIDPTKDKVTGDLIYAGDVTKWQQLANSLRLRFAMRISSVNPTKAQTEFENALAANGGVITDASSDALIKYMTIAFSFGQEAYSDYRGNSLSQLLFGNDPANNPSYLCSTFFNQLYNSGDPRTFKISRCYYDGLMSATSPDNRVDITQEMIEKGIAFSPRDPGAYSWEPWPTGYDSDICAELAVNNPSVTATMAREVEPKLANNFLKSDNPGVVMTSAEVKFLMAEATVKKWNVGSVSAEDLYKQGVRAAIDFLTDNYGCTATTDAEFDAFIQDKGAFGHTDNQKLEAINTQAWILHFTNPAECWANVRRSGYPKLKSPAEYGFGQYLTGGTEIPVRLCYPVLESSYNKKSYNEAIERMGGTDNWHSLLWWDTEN
Description: X-ray crystal structure of the complex, […] Å. Particulars: co-crystallised after overnight incubation with 0.33 mM ligand, 1 mM MgCl2; pH 5.5.

The target in experiment [2] is T1, BoSGBPMLG-A. Description: microscale thermophoresis. The note with it: 50 mM HEPES pH 7.5, 100 mM NaCl, 5 mM CaCl2, 5 mM TCEP, 0.05% Tween 20, 25°C; protein NT-647 labelled; one-site model.

With `OC[C@H]1O[C@@H](O[C@H]2[C@H](O)[C@@H](O)[C@H](O[C@H]3[C@H](O)[C@@H](O)[C@H](O[C@H]4[C@H](O)[C@@H](O)[C@H](O[C@H]5[C@H](O)[C@@H](O)[C@H](O[C@H]6[C@H](O)[C@@H](O)[C@H](O[C@H]7[C@H](O)[C@@H](O)C(O)O[C@@H]7CO)O[C@@H]6CO)O[C@@H]5CO)O[C@@H]4CO)O[C@@H]3CO)O[C@@H]2CO)[C@H](O)[C@@H](O)[C@@H]1O` (stereo partly drawn) [cello-7], the microscale thermophoresis result at BoSGBPMLG-A [1] is on record as “For the more weakly binding cello-7, it was not possible to determine the affinity”.
Turning to `OC[C@H]1O[C@@H](O[C@H]2[C@H](O)[C@@H](O)[C@H](O[C@@H]3[C@@H](O)[C@H](O[C@H]4[C@H](O)[C@@H](O)[C@H](O[C@H]5[C@H](O)[C@@H](O)[C@H](O[C@@H]6[C@@H](O)[C@H](O[C@H]7[C@H](O)[C@@H](O)[C@H](O[C@H]8[C@H](O)[C@@H](O)[C@H](O[C@H]9[C@H](O)[C@@H](CO)OC(O)[C@@H]9O)O[C@@H]8CO)O[C@@H]7CO)O[C@H](CO)[C@H]6O)O[C@@H]5CO)O[C@@H]4CO)O[C@H](CO)[C@H]3O)O[C@@H]2CO)[C@H](O)[C@@H](O)[C@@H]1O` (stereo partly drawn) [barley-9], the “X-ray crystal structure of the complex, 1.43 Å” value at BoSGBPMLG-A-ZB is recorded as “structure of BoSGBPMLG-A in complex with barley-9 (G4G3G4G4G3G4G4G3G)”. Also, the Ka entry on BoSGBPMLG-A [2] is given as “(4.62 ± 1.02) × 10^5”.
With `OC[C@H]1O[C@@H](O[C@H]2[C@H](O)[C@@H](O)[C@H](O[C@@H]3[C@@H](O)[C@H](O[C@H]4[C@H](O)[C@@H](O)[C@H](O[C@H]5[C@H](O)[C@@H](O)[C@H](O[C@H]6[C@H](O)[C@@H](CO)OC(O)[C@@H]6O)O[C@@H]5CO)O[C@@H]4CO)O[C@H](CO)[C@H]3O)O[C@@H]2CO)[C@H](O)[C@@H](O)[C@@H]1O` (stereo partly drawn) [barley-6], on BoSGBPMLG-A [2], the Ka entry is reported as “(1.53 ± 0.23) x 10^5”.
As for `OC[C@H]1O[C@@H](O[C@@H]2[C@@H](O)[C@H](O[C@H]3[C@H](O)[C@@H](O)[C@H](O[C@H]4[C@H](O)[C@@H](O)[C@H](O[C@@H]5[C@@H](O)[C@H](O[C@H]6[C@H](O)[C@@H](O)[C@H](O[C@H]7[C@H](O)[C@@H](O)[C@H](O[C@H]8[C@H](O)[C@@H](CO)OC(O)[C@@H]8O)O[C@@H]7CO)O[C@@H]6CO)O[C@H](CO)[C@H]5O)O[C@@H]4CO)O[C@@H]3CO)O[C@H](CO)[C@H]2O)[C@H](O)[C@@H](O)[C@@H]1O` (stereo partly drawn) [barley-8], the Ka entry at BoSGBPMLG-A [2] is recorded as “(4.29 ± 1.15) x 10^5”.
Turning to `OC[C@H]1O[C@@H](O[C@H]2[C@H](O)[C@@H](O)[C@H](O[C@H]3[C@H](O)[C@@H](O)[C@H](O[C@@H]4[C@@H](O)[C@H](O[C@H]5[C@H](O)[C@@H](O)[C@H](O[C@H]6[C@H](O)[C@@H](O)[C@H](O[C@H]7[C@H](O)[C@@H](CO)OC(O)[C@@H]7O)O[C@@H]6CO)O[C@@H]5CO)O[C@H](CO)[C@H]4O)O[C@@H]3CO)O[C@@H]2CO)[C@H](O)[C@@H](O)[C@@H]1O` (stereo partly drawn) [barley-7], the Ka result at BoSGBPMLG-A [2] is recorded as “(1.06 ± 0.18) x 10^5”.

The values above are taken from PMC8612152, “Mapping Molecular Recognition of β1,3-1,4-Glucans by a Surface Glycan-Binding Protein from the Human Gut Symbiont Bacteroides ovatus” (Microbiology Spectrum, 2021).
